Experimental data published in PMC4885039, “A Scorpion Defensin BmKDfsin4 Inhibits Hepatitis B Virus Replication in Vitro” (Toxins, 2016).
Residues, ends and D or L forms follow the SMILES beside them.

Tests used:
HBsAg = assay: Western blot of intracellular HBsAg in HepG2.2.15 cell lysates; type: cell-based, Hepatitis B virus; settings: 10 μM, HepG2.2.15 cell lysate
Experimental: (§1) Cells were resuspended with radioimmunoprecipitation (RIPA) assay buffer (50 mM Tris-HCl (pH 7.5), 150 mM sodium chloride, 1% Nonidet P40, and 0.5% sodium deoxycholate) with phenylmethylsulfonyl fluoride (PMSF) and incubated on ice for 30 min for fully lysis. Cell lysates were electrophoresed in sodium dodecyl sulfate-polyacrylamide (SDS) gels and transferred to nitrocellulose membranes (Millipore, Darmstadt, Germany). The antibodies used for probing were as follows: mouse monoclonal anti-HBsAg (1:200 dilution, Abcam, Cambridge, UK), rabbit polyclonal anti-HBV core (1:500 dilution, Dako-Cytomation, Carpinteria, CA, USA), mouse monoclonal anti-Hep B xAg (1:200 dilution, Santa Cruz Biotechnology, Dallas, TX, USA), mouse monoclonal anti-Hep B Pol (1:200 dilution, Santa Cruz Biotechnology, Dallas, TX, USA), and anti-β-actin (1:5000 dilution, Santa Cruz Biotechnology, Dallas, TX, USA) were used as primary antibodies, and the secondary antibodies were conjugated to horseradish peroxidase (HRP).

HBx protein = assay: Western blot of intracellular HBx protein in HepG2.2.15 cell lysates; type: cell-based, Hepatitis B virus; settings: HepG2.2.15 cell lysate
Experimental: as §1

HBV core = assay: Western blot of intracellular HBV core in HepG2.2.15 cell lysates; type: cell-based, Hepatitis B virus; settings: HepG2.2.15 cell lysate
Experimental: as §1

human erythrocytes = assay: Hemolysis assay; type: cell-based; settings: 37 °C, 1 h, absorbance at 570 nm, 0 to 200 μM
Experimental: Erythrocytes were obtained from fresh human blood by centrifugation for 10 min at 1000× g. After washed by HEPES buffer for three times, erythrocytes were resuspended in normal saline and seeded in 96-well plates (10^7 cells per well). BmKDfsin4 was added in a serial of concentrations, 0.1% triton-X100 was used as positive control and normal saline was used as negative control. After incubated at 37 °C for 1 h, the supernatants were collected by centrifugation for 10 min at 1000× g. The absorbance of hemoglobin was measured at a wavelength of 570 nm.

HBV RT = assay: Western blot of intracellular HBV RT in HepG2.2.15 cell lysates; type: cell-based, Hepatitis B virus; settings: HepG2.2.15 cell lysate
Experimental: as §1

HepG2.2.15 cells = assay: MTT cytotoxicity assay, HepG2.2.15; type: cell-based, human; settings: 48 h, 0 to 200 μM, five repetitions
Experimental: Cells were seeded in 96-well plates (10^4 cells per well) and cultured in DMEM containing 10% FBS in 5% CO2 at 37 °C for 12 h. Then, peptides were added to the medium in a serial of concentrations. The concentrations ranged from 0 to 200 μM. Five repetitions were set for each concentration. After 48 h of incubation, 20 μL of MTT solution (5 mg/mL in PBS buffer; Invitrogen, Foster, CA, USA) was added to the medium in each well, and the plate was incubated in 5% CO2 at 37 °C for 4 h. Then, the medium was replaced by 100 μL DMSO. To completely dissolve the precipitated crystal purple formazan, the plate was then gently shaken for 10 min at room temperature. The absorbance at a wavelength of 570 nm was measured using a microplate reader (BioTek, Winooski, VT, USA).

## CC[C@H](C)[C@@H]1NC(=O)[C@H](CO)NC(=O)[C@H](CCC(N)=O)NC(=O)[C@@H]2CSSC[C@@H](C(=O)N[C@@H](Cc3ccc(O)cc3)C(=O)N[C@@H](CCCNC(=N)N)C(=O)O)NC(=O)[C@H](C(C)C)NC(=O)[C@@H]3CSSC[C@H](NC(=O)[C@H](CCC(N)=O)NC(=O)CNC(=O)[C@H](CCC(N)=O)NC(=O)[C@H](CC(N)=O)NC(=O)[C@H](Cc4ccccc4)NC(=O)[C@@H]4CCCN4C(=O)[C@@H](NC(=O)CNC(=O)[C@H](Cc4ccccc4)NC(=O)CN)CSSC[C@H](NC(=O)[C@H](Cc4ccc(O)cc4)NC(=O)CNC(=O)CNC(=O)[C@H](CCCNC(=N)N)NC(=O)[C@H](CCCNC(=N)N)NC(=O)[C@H](CCCNC(=N)N)NC1=O)C(=O)N[C@@H](CC(=O)O)C(=O)NCC(=O)N[C@@H](Cc1ccccc1)C(=O)N[C@@H](CC(C)C)C(=O)N[C@@H](CCCCN)C(=O)N[C@@H]([C@@H](C)O)C(=O)N[C@@H](CCCNC(=N)N)C(=O)N3)C(=O)N[C@@H](Cc1c[nH]cn1)C(=O)N[C@@H](CCCCN)C(=O)N[C@@H](Cc1c[nH]cn1)C(=O)N2 [BmKDfsin4] (HELM PEPTIDE1{G.F.G.C.P.F.N.Q.G.Q.C.H.K.H.C.Q.S.I.R.R.R.G.G.Y.C.D.G.F.L.K.T.R.C.V.C.Y.R}$PEPTIDE1,PEPTIDE1,4:R3-25:R3|PEPTIDE1,PEPTIDE1,11:R3-33:R3|PEPTIDE1,PEPTIDE1,15:R3-35:R3$$$V2.0; N-terminus and C-terminus assumed; bridges inferred)
HBsAg
  intracellular HBsAg level: almost undetectable
HBx protein; 5 μM
  intracellular HBx protein level: only a slight band
HBx protein; 10 μM
  intracellular HBx protein level: totally undetectable
HBV core
  inhibitory activity against intracellular HBV core: significantly concentration-dependent inhibition
Human erythrocytes
  HC50 (50% hemolysis concentration): 66.85 µM
HBV RT
  inhibitory activity against intracellular HBV RT: significantly concentration-dependent inhibition
HepG2.2.15 cells
  CC50 (50% cytotoxicity concentration), HepG2.2.15: 167.82 µM
